Where two headings read alike, the source gives them in different places.
Legend:
[1] = tested on: Leptosphaeria nodorum—LEPTNO; assay: Glume Blotch of Wheat, in vivo whole plant, 24 Hour Protectant; details: for pest or weed control at 100 ppm: Leptosphaeria, read-out: LEPTNO in vivo 1 Day Protectant
Septoria tritici—SEPTTR = assay: Leaf Blotch of Wheat, in vivo whole plant, 24 Hour Protectant; details: for pest or weed control at 100 ppm: Zymoseptoria tritici, 24 h, read-out: SEPTTR in vivo 1 Day Protectant
[2] = tested on: Magnaporthe grisea (Pyricularia oryzae—PYRIOR); assay: microbe, parasite or virus in culture; type: cell-based; details: Pyricularia oryzae, read-out: PYRIOR in vitro Growth Inhibition
[3] = tested on: Phytophthora infestans—PHYTIN; assay: whole plant or invertebrate; type: in vivo; details: Phytophthora, in Solanum lycopersicum, 24 h, read-out: PHYTIN in vivo 1 Day Protectant
Ustilago maydis (USTIMA) = assay: microbe, parasite or virus in culture; type: cell-based; details: Mycosarcoma maydis, read-out: USTIMA in vitro Growth Inhibition
[4] = tested on: Rhizoctonia solani (RHIZSO); assay: microbe, parasite or virus in culture; type: cell-based; details: Rhizoctonia solani, read-out: RHIZSO in vitro Growth Inhibition
Erysiphe graminis—ERYSGT = assay: Powdery Mildew of Wheat, in vivo whole plant, 24 Hour Protectant; details: for pest or weed control at 100 ppm: Erysiphe, read-out: ERYSGT in vivo 1 Day Protectant
[5] = tested on: Phytophthora infestans (PHYTIN); assay: microbe, parasite or virus in culture; type: cell-based; details: Phytophthora infestans, read-out: PHYTIN in vitro Growth Inhibition
[6] = tested on: Mycosphaerella graminicola (Septoria tritici—SEPTTR); assay: In vitro fungal growth inhibition, Mycosphaerella graminicola (SEPTTR); type: cell-based; details: Zymoseptoria tritici, read-out: SEPTTR in vitro Growth Inhibition
[7] = tested on: Puccinia recondita—PUCCRT; assay: Brown Rust of Wheat, in vivo whole plant, 24 Hour Protectant; details: for pest or weed control at 100 ppm: Puccinia, read-out: PUCCRT in vivo 1 Day Protectant
[8] = tested on: Stagonospora nodorum (Leptosphaeria nodorum—LEPTNO); assay: In vitro fungal growth inhibition, Stagonospora nodorum (LEPTNO); type: cell-based; details: Leptosphaeria, read-out: LEPTNO in vitro Growth Inhibition
[9] = wheat plants sprayed at 100 ppm, inoculated after 24 hours, control of fungal infection vs untreated plants
[10] = 100 ppm spray, wheat, 24 hour protectant, control of fungal infection vs untreated plants
[11] = 100 ppm spray, 24 hour protectant, wheat, control of fungal infection vs untreated plants
[12] = 100 ppm spray, wheat, 24 hour protectant, % control of fungal infection vs untreated plants

COc1ccnc(C(=O)Nc2ccc(Oc3ccc(C(F)(F)F)cc3)nc2)c1O [Compound 472]
pest or weed control at 100 ppm [1, 9]: 25 to 74% | pest or weed control at 100 ppm (Septoria tritici—SEPTTR; [9]): 25 to 74% | inhibition at 25 ppm [2]: > 80% | pest or weed control at 100 ppm [3]: < 25% | inhibition at 25 ppm (Ustilago maydis (USTIMA)): < 80% | inhibition at 25 ppm [4]: < 80% | pest or weed control at 100 ppm (Erysiphe graminis—ERYSGT; [9]): < 25% | inhibition at 25 ppm [5]: < 80% | inhibition at 25 ppm ([6]; 25 ppm in the growth medium): < 80% | pest or weed control at 100 ppm [7, 9]: 25 to 74% | inhibition at 25 ppm ([8]; 25 ppm in the growth medium): < 80%

COc1ccnc(C(=O)NC2CC(C)(C)C=CC=C2C)c1OC(C)=O (stereo not shown) [Compound 579]
pest or weed control at 100 ppm [1, 9]: < 25% | SEPTTR in vivo 1 Day Protectant (Septoria tritici—SEPTTR; [9]): + + | inhibition at 25 ppm [2]: < 80% | pest or weed control at 100 ppm [3]: < 25% | inhibition at 25 ppm (Ustilago maydis (USTIMA)): < 80% | inhibition at 25 ppm [4]: < 80% | pest or weed control at 100 ppm (Erysiphe graminis—ERYSGT; [9]): < 25% | inhibition at 25 ppm [5]: < 80% | inhibition at 25 ppm ([6]; 25 ppm in the growth medium): < 80% | pest or weed control at 100 ppm [7, 9]: < 25% | inhibition at 25 ppm ([8]; 25 ppm in the growth medium): < 80%

COc1ccnc(C(=O)NC(COC(=O)CCc2ccccc2)C(=O)OC(C)COC(=O)C(C)C)c1OC(C)=O (stereo not shown) [Compound 590]
pest or weed control at 100 ppm [1, 9]: 25 to 74% | pest or weed control at 100 ppm (Septoria tritici—SEPTTR; [9]): 25 to 74% | inhibition at 25 ppm [2]: < 80% | pest or weed control at 100 ppm [3]: < 25% | inhibition at 25 ppm (Ustilago maydis (USTIMA)): < 80% | inhibition at 25 ppm [4]: < 80% | pest or weed control at 100 ppm (Erysiphe graminis—ERYSGT; [9]): < 25% | inhibition at 25 ppm [5]: < 80% | inhibition at 25 ppm ([6]; 25 ppm in the growth medium): < 80% | pest or weed control at 100 ppm [7, 9]: 25 to 74% | inhibition at 25 ppm ([8]; 25 ppm in the growth medium): < 80%

COc1ccc(Oc2ccccc2NC(=O)c2nccc(OC)c2O)cc1 [Compound 429]
pest or weed control at 100 ppm [1, 10]: < 25% | pest or weed control at 100 ppm (Septoria tritici—SEPTTR; [10]): < 25% | inhibition at 25 ppm [2]: < 80% | pest or weed control at 100 ppm [3]: < 25% | inhibition at 25 ppm (Ustilago maydis (USTIMA)): < 80% | inhibition at 25 ppm [4]: < 80% | pest or weed control at 100 ppm (Erysiphe graminis—ERYSGT; [10]): < 25% | inhibition at 25 ppm [5]: < 80% | inhibition at 25 ppm ([6]; 25 ppm in growth medium): > 80% | pest or weed control at 100 ppm [7, 10]: < 25% | inhibition at 25 ppm ([8]; 25 ppm in growth medium): < 80%

COc1ccnc(C(=O)NC2CC(C)(C)CC(C)(C3CC3)C2)c1OC(C)=O (stereo not shown) [Compound 573]
LEPTNO in vivo 1 Day Protectant [1, 9]: + + | pest or weed control at 100 ppm (Septoria tritici—SEPTTR; [9]): 25 to 74% | inhibition at 25 ppm [2]: < 80% | pest or weed control at 100 ppm [3]: < 25% | inhibition at 25 ppm (Ustilago maydis (USTIMA)): < 80% | inhibition at 25 ppm [4]: < 80% | pest or weed control at 100 ppm (Erysiphe graminis—ERYSGT; [9]): < 25% | inhibition at 25 ppm [5]: < 80% | inhibition at 25 ppm ([6]; 25 ppm in the growth medium): < 80% | PUCCRT in vivo 1 Day Protectant [7, 9]: + + | inhibition at 25 ppm ([8]; 25 ppm in the growth medium): > 80%

COc1ccnc(C(=O)N[C@H]2COC(=O)[C@H](Cc3ccccc3)[C@@H](OC(=O)C(C)C)[C@H](C)OC2=O)c1OC(=O)Cc1ccccc1 [Compound 648]
LEPTNO in vivo 1 Day Protectant ([1]; in vivo): + + | SEPTTR in vivo 1 Day Protectant (Septoria tritici—SEPTTR; in vivo): + + | inhibition at 25 ppm [2]: > 80% | pest or weed control at 100 ppm [3]: < 25% | inhibition at 25 ppm (Ustilago maydis (USTIMA)): < 80% | inhibition at 25 ppm [4]: < 80% | ERYSGT in vivo 1 Day Protectant (Erysiphe graminis—ERYSGT; in vivo): + + | inhibition at 25 ppm [5]: < 80% | inhibition at 25 ppm [6]: < 80% | PUCCRT in vivo 1 Day Protectant ([7]; in vivo): + + | inhibition at 25 ppm [8]: < 80%

COc1cccc(Oc2ccccc2NC(=O)c2nccc(OC)c2O)c1 [Compound 428]
pest or weed control at 100 ppm [1, 10]: < 25% | pest or weed control at 100 ppm (Septoria tritici—SEPTTR; [10]): < 25% | inhibition at 25 ppm [2]: > 80% | pest or weed control at 100 ppm [3]: < 25% | inhibition at 25 ppm (Ustilago maydis (USTIMA)): < 80% | inhibition at 25 ppm [4]: < 80% | pest or weed control at 100 ppm (Erysiphe graminis—ERYSGT; [10]): < 25% | inhibition at 25 ppm [5]: < 80% | inhibition at 25 ppm ([6]; 25 ppm in growth medium): > 80% | pest or weed control at 100 ppm [7, 10]: < 25% | inhibition at 25 ppm ([8]; 25 ppm in growth medium): < 80%

COc1ccnc(C(=O)N[C@@H]2OC[C@@H](OCc3ccccc3)[C@H](OCc3ccccc3)[C@H]2OCc2ccccc2)c1O [Compound 332]
pest or weed control at 100 ppm [1, 10]: 25 to 74% | pest or weed control at 100 ppm (Septoria tritici—SEPTTR; [10]): 25 to 74% | inhibition at 25 ppm [2]: < 80% | pest or weed control at 100 ppm [3]: < 25% | inhibition at 25 ppm (Ustilago maydis (USTIMA)): < 80% | inhibition at 25 ppm [4]: < 80% | pest or weed control at 100 ppm (Erysiphe graminis—ERYSGT; [10]): < 25% | inhibition at 25 ppm [5]: < 80% | inhibition at 25 ppm ([6]; 25 ppm in growth medium): < 80% | pest or weed control at 100 ppm [7, 10]: < 25% | inhibition at 25 ppm ([8]; 25 ppm in growth medium): < 80%

COc1ccnc(C(=O)NC2CC(c3ccco3)CC(C)(C)C2)c1O (stereo not shown) [Compound 258]
pest or weed control at 100 ppm [1, 11]: 25 to 74% | pest or weed control at 100 ppm (Septoria tritici—SEPTTR; [11]): 25 to 74% | inhibition at 25 ppm [2]: < 80% | pest or weed control at 100 ppm [3]: < 25% | inhibition at 25 ppm (Ustilago maydis (USTIMA)): < 80% | inhibition at 25 ppm [4]: < 80% | pest or weed control at 100 ppm (Erysiphe graminis—ERYSGT; [11]): < 25% | inhibition at 25 ppm [5]: > 80% | inhibition at 25 ppm ([6]; 25 ppm in growth medium): > 80% | pest or weed control at 100 ppm [7, 11]: < 25% | inhibition at 25 ppm ([8]; 25 ppm in growth medium): > 80%

COCCC(=O)Oc1c(OC)ccnc1C(=O)Nc1ccc(C(=O)Oc2cccc(C(F)(F)F)c2)cc1 [Compound 716]
pest or weed control at 100 ppm [1, 12]: 25 to 74% | pest or weed control at 100 ppm (Septoria tritici—SEPTTR; [12]): 25 to 74% | inhibition at 25 ppm [2]: < 80% | pest or weed control at 100 ppm [3]: < 25% | inhibition at 25 ppm (Ustilago maydis (USTIMA)): < 80% | inhibition at 25 ppm [4]: < 80% | pest or weed control at 100 ppm (Erysiphe graminis—ERYSGT; [12]): < 25% | inhibition at 25 ppm [5]: < 80% | inhibition at 25 ppm ([6]; 25 ppm in growth medium): < 80% | pest or weed control at 100 ppm [7, 12]: 25 to 74% | inhibition at 25 ppm ([8]; 25 ppm in growth medium): < 80%

O=C(NCc1ccc(Cl)cc1)c1ccncc1O [Compound 507]
pest or weed control at 100 ppm [1, 9]: < 25% | pest or weed control at 100 ppm (Septoria tritici—SEPTTR; [9]): < 25% | inhibition at 25 ppm [2]: < 80% | pest or weed control at 100 ppm [3]: < 25% | inhibition at 25 ppm (Ustilago maydis (USTIMA)): < 80% | inhibition at 25 ppm [4]: < 80% | pest or weed control at 100 ppm (Erysiphe graminis—ERYSGT; [9]): < 25% | inhibition at 25 ppm [5]: < 80% | inhibition at 25 ppm ([6]; 25 ppm in the growth medium): < 80% | pest or weed control at 100 ppm [7, 9]: < 25% | inhibition at 25 ppm ([8]; 25 ppm in the growth medium): < 80%

COc1ccnc(C(=O)N[C@@H](CO)C(=O)O[C@@H](C)[C@H](OC(=O)C(C)C)[C@@H](Cc2ccccc2)C(=O)O)c1O [Compound 341]
pest or weed control at 100 ppm [1, 10]: < 25% | pest or weed control at 100 ppm (Septoria tritici—SEPTTR; [10]): 25 to 74% | inhibition at 25 ppm [2]: < 80% | pest or weed control at 100 ppm [3]: < 25% | inhibition at 25 ppm (Ustilago maydis (USTIMA)): < 80% | inhibition at 25 ppm [4]: < 80% | pest or weed control at 100 ppm (Erysiphe graminis—ERYSGT; [10]): < 25% | inhibition at 25 ppm [5]: < 80% | inhibition at 25 ppm ([6]; 25 ppm in growth medium): < 80% | pest or weed control at 100 ppm [7, 10]: < 25% | inhibition at 25 ppm ([8]; 25 ppm in growth medium): < 80%

CC(NC(=O)c1nc(Br)ccc1O)c1ccc(C(F)(F)F)cc1 (stereo not shown) [Compound 488]
pest or weed control at 100 ppm [1, 9]: < 25% | pest or weed control at 100 ppm (Septoria tritici—SEPTTR; [9]): 25 to 74% | inhibition at 25 ppm [2]: > 80% | pest or weed control at 100 ppm [3]: < 25% | inhibition at 25 ppm (Ustilago maydis (USTIMA)): < 80% | inhibition at 25 ppm [4]: < 80% | pest or weed control at 100 ppm (Erysiphe graminis—ERYSGT; [9]): < 25% | inhibition at 25 ppm [5]: < 80% | inhibition at 25 ppm ([6]; 25 ppm in the growth medium): < 80% | pest or weed control at 100 ppm [7, 9]: 25 to 74% | inhibition at 25 ppm ([8]; 25 ppm in the growth medium): < 80%

COc1ccnc(C(=O)NC(COC(=O)C(C)Cc2ccccc2)C(=O)OC(C)C)c1OC(C)=O (stereo not shown) [Compound 588]
pest or weed control at 100 ppm [1, 9]: 25 to 74% | pest or weed control at 100 ppm (Septoria tritici—SEPTTR; [9]): < 25% | inhibition at 25 ppm [2]: < 80% | pest or weed control at 100 ppm [3]: < 25% | inhibition at 25 ppm (Ustilago maydis (USTIMA)): < 80% | inhibition at 25 ppm [4]: < 80% | pest or weed control at 100 ppm (Erysiphe graminis—ERYSGT; [9]): < 25% | inhibition at 25 ppm [5]: < 80% | inhibition at 25 ppm ([6]; 25 ppm in the growth medium): < 80% | PUCCRT in vivo 1 Day Protectant [7, 9]: + + | inhibition at 25 ppm ([8]; 25 ppm in the growth medium): < 80%
